Numbers after ± are expanded uncertainties.
Key:
[1] = 298.15 K; 101.33 kPa; Liquid
[2] = refractive index (Na D-line) (dimensionless); conditions: 293.15 K; 101.33 kPa; Liquid; Standard Abbe refractometry

In the case of `C=C(C)OC(C)=O` [1-methylvinyl ethanoate], the mass density [1] is reported as 927.8 ± 0.3 kg/m3 and the refractive index [2] is reported as 1.4033 ± 0.0004.
`CC(=O)O` [acetic acid] showed a mass density [1] of 1047.4 ± 0.3 kg/m3 and a refractive index [2] of 1.372 ± 0.0004.
Compound `CC(=O)CC(C)=O` [2,4-pentanedione] has a mass density [1] of 971.9 ± 0.3 kg/m3 and a refractive index [2] of 1.4491 ± 0.0004.

Source: the NIST ThermoML archive (doi:10.1021/je800345j)
